Article PMC12491715 (Acta Pharmaceutica Sinica. B, 2025)
In brackets after ≈: the same amount, converted by molar mass.

Assays:
[1] = target: T1, hBChE (Homo sapiens, UniProt P06276); test: hBChE binding kinetics: carbamoylation and decarbamoylation, initial velocity measurements; format: biochemical
Protocol: The progress curves for the time courses of product formation for the hydrolysis of butyrylthiocholine iodide were measured on an Agilent Cary 3500 UV–VIS spectrophotometer with Compact Peltier (thermostated at 25 °C) at 412 nm using a 0.6 mL cuvette (optical path–0.5 cm). 30 mmol/L Tris buffer pH 7.0 with 1 mg/mL BSA and 0.02% NaN3 was used and all dilutions were done in glass vessels (note: dilute hBChE solutions rapidly lose activity, presumably due to adsorption to plastic, preventing meaningful decarbamoylation assays. In our hands, under the above conditions only, the diluted and stock solutions of hBChE were stable for at least a month at room temperature.). Total volume in the cuvette was always 500 μL, and enzyme solutions that gave upon dilution v0 = (dA/dt) ≈ 0.5 (for carbamoylation) and ≈ 1 for (for decarbamoylation) were used. For carbamoylation experiments, 0.5–1 μL of enzyme stock, 5 μL of compound solution, and 484 μL of buffer were preincubated for the specified time, then 10 μL of the mixture of 25 mmol/L Ellman’s reagent (DTNB) and 20 mmol/L butyrylthiocholine (large excess to prevent substrate depletion) were added, quickly mixed, and measurement started. […] The data analysis followed the literature[63]^,[98].

[2] = pKa from solubility and partition measurements; format: physicochemical; details: break in the logP vs. pH and log(solubility) vs. pH plot
Protocol: (§1) The supernatants were diluted 1:5 with 50% MeCN or used directly for UPLC analysis (calibration curve was constructed from 0.5–100 mg/L standard solutions of compound 8).
Shake-flask partition coefficient measurement was done according to OECD guideline 107 (27. 7. 1995) and EPA OPPTS 830.7550 guideline (1996). Briefly, PBS pH 7.4 buffer (50 mL) and n-octanol (50 mL) were thoroughly shaken to ensure saturation of both phases and left to separate. Compound 8 stock solution in n-octanol (approx. 1000 mg/L) was accurately pipetted into Eppendorf tubes (500, 1000, 500 μL, respectively) and n-octanol-saturated PBS pH 7.4 buffer (500, 500, 1000 μL, respectively) was added. Each solvent ratio was done in duplicates. The Eppendorf tubes were thoroughly shaken to ensure partition and centrifuged (5000 × g, 10 min) to separate the phases. Water phase (carefully sampled using needle and syringe) was transferred to HPLC vials directly, whereas n-octanol phases were diluted with MeCN (10–50×) prior to analysis. Additional dilutions were carried out, if needed.

[3] = test system: caspase-3 activity in SH-SY5Y cells; test: Caspase-3 activity in lysates of Aβ1–42-treated cells; format: cell-based, human; details: 5 μmol/L compound, 5 μmol/L fibrillar Aβ1–42, 24 h
Protocol: Cell culture and treatments The human neuroblastoma SH-SY5Y cell line was purchased from American Type Culture Collection (Manassas, VA, USA). Cells were cultured in Advanced Dulbecco’s modified Eagle’s medium (Gibco, Thermo Fisher Scientific, Waltham, MA, USA) supplemented with 10% fetal bovine serum (FBS, Gibco), 2 mmol/L L-glutamine, 50 U/mL penicillin and 50 μg/mL streptomycin (Sigma, St. Louis, MO, USA) in a humidified atmosphere of 95% air and 5% CO2 at 37 °C, and grown to 80% confluence. Prior to cell treatment, complete medium was replaced with serum-reduced medium (i.e., with 2% FBS). Compounds were prepared as a stock solution of 50 mmol/L in DMSO.
Caspase-3 activity and Western blot analysis The activity of caspases-3 was determined in total cell lysates of the SH-SY5Y cells treated as described. […] Following cell treatment for 24 h, cell lysates were prepared, and the caspase-3 activity was assessed using the fluorescent peptide substrate N-acetyl-L-α-aspartyl-L-α-glutamyl-L-valyl-N-[2-oxo-4-(trifluoromethyl)-2H-1-benzopyran-7-yl]-L-α-asparagine (Ac-DEVD-AFC; Bachem). […] Immediately after the addition of the substrate, fluorescence was monitored continuously for 30 min at an excitation wavelength of 405 nm and an emission wavelength of 535 nm using a Tecan Safire[2] fluorescence microplate reader. […]

[4] = target: T1, hBChE; details: expected nearly identical to compound 11 of the previous study (same carbamoyl residue at Ser198); cited from earlier work
[5] = Thermodynamic solubility; format: physicochemical; details: thermodynamic from solid
Protocol: as §1

T1 sequence (P06276 29-602): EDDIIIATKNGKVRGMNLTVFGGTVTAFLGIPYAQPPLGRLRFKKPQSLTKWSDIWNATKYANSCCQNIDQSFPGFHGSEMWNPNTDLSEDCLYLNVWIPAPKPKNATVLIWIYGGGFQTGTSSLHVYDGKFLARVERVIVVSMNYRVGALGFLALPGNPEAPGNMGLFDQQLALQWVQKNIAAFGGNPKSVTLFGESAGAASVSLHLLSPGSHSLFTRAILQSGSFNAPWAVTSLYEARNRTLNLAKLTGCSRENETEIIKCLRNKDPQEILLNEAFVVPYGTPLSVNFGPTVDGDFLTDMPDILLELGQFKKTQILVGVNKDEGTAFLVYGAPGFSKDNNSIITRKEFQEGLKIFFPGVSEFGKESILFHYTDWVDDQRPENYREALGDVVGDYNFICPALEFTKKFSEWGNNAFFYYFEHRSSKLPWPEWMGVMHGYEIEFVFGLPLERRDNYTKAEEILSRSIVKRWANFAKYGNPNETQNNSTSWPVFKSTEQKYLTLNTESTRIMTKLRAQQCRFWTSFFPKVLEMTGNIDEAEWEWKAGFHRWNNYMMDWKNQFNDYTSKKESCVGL

## CCN(CC)C(=O)n1cnc(C2(CC)Cc3ccccc3C2)c1 [Compound 8, N,N-Diethyl-4-(2-ethylindan-2-yl)-1H-imidazole-1-carboxamide]
[1]
  Ki: 2820 ± 200 nM
[1]; 25 °C
  kcarb, carbamoylation: 3.7±1.7 min^–1
  ΔG25°C‡, carbamoylation: 19.1 ± 0.3 kcal/mol
[1]; Table 2
  reactivation period of the carbamoylated enzyme: > 10 days
[1]; compared to 6
  prolongation of decarbamoylation phase: > 15 fold
[2]
  pKa: 4.1
[3]
  caspase-3 activity after Aβ1–42 treatment: significant reduction
[4]
  kdecarb, decarbamoylation: ∼0.22[53] ×10^–2 h^–1
  t1/2, decarbamoylation: ∼318[53] h
[5]; 1% Tween 20 in water, aqueous with cosolvent or surfactant or cyclodextrin, 1% Tween 20/water
  solubility at 24 h: 615 ± 172 µg/mL (≈ 1970 µM)
[5]; PBS, aqueous buffer
  solubility at 24 h: 100 ± 20 µg/mL (≈ 321 µM)
[5]; pH 2 solution, pH 2, aqueous buffer
  solubility at 24 h: 2420 ± 108 µg/mL (≈ 7760 µM)
[5]; pH 4 solution, pH 4, aqueous buffer
  solubility at 24 h: 166 ± 12 µg/mL (≈ 533 µM)
[5]; pH 6 solution, pH 6, aqueous buffer
  solubility at 24 h: 136 ± 1 µg/mL (≈ 437 µM)
[5]; pH 10 solution, pH 10, aqueous buffer
  solubility at 24 h: 103 ± 17 µg/mL (≈ 331 µM)
[5]; water
  solubility at 24 h: 115 ± 26 µg/mL (≈ 369 µM)
